From ChEMBL document CHEMBL1697781, “Assessment of the health effects of chemicals in humans: II. Construction of an adverse effects database for QSAR modeling” (Curr Drug Discov Technol, 2004)

How the values were obtained:
Conditions in all cases: human; call rule not given here
Hepatotoxicity [1] = test: FDA HLAED, gamma-glutamyl transferase (GGT) increase
Hepatotoxicity [2] = test: FDA HLAED, serum glutamic oxaloacetic transaminase (SGOT) increase
Hepatotoxicity [3] = test: FDA HLAED, serum glutamic pyruvic transaminase (SGPT) increase
Hepatotoxicity [4] = test: FDA HLAED, alkaline phosphatase increase
Hepatotoxicity [5] = test: FDA HLAED, liver enzyme composite activity
Hepatotoxicity [6] = test: FDA HLAED, lactate dehydrogenase (LDH) increase
For GGT Increase - Index Value in this document: reference of the scale not given here.
For LDH Increase - Index Value in this document: reference of the scale not given here.

SMILES	GGT Increase - Activity Score (Hepatotoxicity [1])	GGT Increase - Index Value (Hepatotoxicity [1])	GGT Increase - Number of Reports (Hepatotoxicity [1])	SGOT Increase - Activity Score (Hepatotoxicity [2])	SGOT Increase - Index Value (Hepatotoxicity [2])	SGOT Increase - Number of Reports (Hepatotoxicity [2])	SGPT Increase - Activity Score (Hepatotoxicity [3])	SGPT Increase - Index Value (Hepatotoxicity [3])	SGPT Increase - Number of Reports (Hepatotoxicity [3])	Alkaline Phosphatase Increase - Activity Score (Hepatotoxicity [4])	Alkaline Phosphatase Increase - Index Value (Hepatotoxicity [4])	Alkaline Phosphatase Increase - Number of Reports (Hepatotoxicity [4])	Composite Activity - Active (Hepatotoxicity [5])	Composite Activity - Marginal (Hepatotoxicity [5])	Composite Activity - Score (Hepatotoxicity [5])	LDH Increase - Activity Score (Hepatotoxicity [6])	LDH Increase - Index Value (Hepatotoxicity [6])	LDH Increase - Number of Reports (Hepatotoxicity [6])
O=P1(NCCCl)OCCCN1CCCl (stereo unspecified) [IFOSFAMIDE]	Inactive	0	< 4	Active	17.5	>= 4	Inactive	7.5	< 4	Inactive	5	< 4	1	0	Inactive	Inactive	7.5	< 4
COc1cc(NCc2ccc3nc(N)nc(N)c3c2C)cc(OC)c1OC [TRIMETREXATE]	Inactive	0	< 4	Active	77.5	< 4	Inactive	38.8	< 4	Inactive	38.8	< 4	1	0	Inactive	Inactive	38.8	< 4
CCOC(=O)C1=C(C)NC(C)=C(C(=O)OC)C1c1cccc(Cl)c1Cl (stereo unspecified) [FELODIPINE]	Inactive	0.3	< 4	Inactive	0.3	< 4	Inactive	0.3	< 4	Inactive	0.6	< 4	0	0	Inactive	Inactive	0.3	< 4
CC(=O)N(CC(O)CO)c1c(I)c(C(=O)NCC(O)CO)c(I)c(C(=O)NCC(O)CO)c1I (stereo unspecified) [IOHEXOL]	Inactive	0	< 4	Inactive	144.9	< 4	Inactive	0	< 4	Inactive	144.9	< 4	0	0	Inactive	Inactive	144.9	< 4
C[N+](C)(C)CCO.Cn1c(=O)c2[n-]cnc2n(C)c1=O [OXTRIPHYLLINE]	Inactive	0	< 4	Inactive	0	< 4	Inactive	0	< 4	Inactive	0	< 4	0	0	Inactive	Inactive	0	< 4
COc1ccc(CC2c3cc(OC)c(OC)cc3CC[N+]2(C)CCC(=O)OCCCCCOC(=O)CC[N+]2(C)CCc3cc(OC)c(OC)cc3C2Cc2ccc(OC)c(OC)c2)cc1OC (stereo unspecified)	Inactive	0	< 4	Inactive	0	< 4	Inactive	0	< 4	Inactive	0	< 4	0	0	Inactive	Inactive	0	< 4
COCCOC(=O)C1=C(C)NC(C)=C(C(=O)OC(C)C)C1c1cccc([N+](=O)[O-])c1 (stereo unspecified) [NIMODIPINE]	Active	17.6	< 4	Active	23.4	>= 4	Active	29.3	>= 4	Active	17.6	< 4	5	0	Active	Active	23.4	>= 4
CCOC(=O)c1ncn2c1CN(C)C(=O)c1cc(F)ccc1-2 [FLUMAZENIL]	Inactive	0	< 4	Inactive	2.5	< 4	Inactive	2.5	< 4	Inactive	0	< 4	0	0	Inactive	Inactive	0	< 4
NC(=O)OCC(COC(N)=O)c1ccccc1 [FELBAMATE]	Active	15.8	>= 4	Active	11.7	>= 4	Active	11.7	>= 4	Active	15	>= 4	5	0	Active	Active	8.3	>= 4
CCOC(=O)[C@H](CCc1ccccc1)N[C@@H](C)C(=O)N1[C@H](C(=O)O)C[C@@H]2CCC[C@@H]21	Inactive	1.4	>= 4	Inactive	0.8	< 4	Inactive	0.5	< 4	Inactive	1.1	>= 4	0	0	Inactive	Inactive	0.5	< 4
CO/N=C(\C(=O)N[C@@H]1C(=O)N2C(C(=O)O)=CCS[C@H]12)c1csc(N)n1 [CEFTIZOXIME]	Inactive	0	< 4	Active	7.8	>= 4	Active	4	>= 4	Inactive	2.9	>= 4	2	0	Active	Inactive	0.3	< 4
N=C(N)c1ccc(OCCCCCOc2ccc(C(=N)N)cc2)cc1 [PENTAMIDINE]	Inactive	0	< 4	Inactive	5.7	< 4	Inactive	5.7	< 4	Inactive	11.5	< 4	0	0	Inactive	Inactive	5.7	< 4
